Source: US20230364057A1, “BACTERIAL DNA GYRASE INHIBITORS AND METHODS OF USE THEREOF” (THE FLORIDA INTERNATIONAL UNIVERSITY BOARD OF TRUSTEES, priority 2022, published 2023)
pIC50, pKi: −log10 of the molar value. In brackets after ≈: the same amount, converted by molar mass. Several values for one entry are separate records, joined by “and”; a condition that tells them apart may be missing. Equal values may be shown once. Read-outs that look alike come from different tables or passages of the source.

Columns and labels:
[1] = molecular target: Mtb DNA gyrase (Mycobacterium tuberculosis (strain ATCC 25618 / H37Rv), UniProt P9WG45+P9WG47); test: Mtb DNA gyrase inhibition assay (gel-based); format: biochemical
Experimental: The IC50 against E. coli (A) and Mtb (C) gyrase were determined using the gel-based gyrase inhibition assays. The gyrase mediated DNA cleavage assays (B and D) were performed using pBR322. (A) 229 inhibits E. coli gyrase. Lane 1, rx pAB1. […] Lane 1, rx pAB1. […] 100 µM of CPDs were used. Symbols rx, nk, In, and sc represent relaxed, nicked, linear, and supercoiled DNA, respectively.
Agarose gel-based DNA gyrase inhibition assays were performed in 30 µL of 1 ×gyrase buffer (35 mM Tris-HCl, 24 mM KCl, 4 mM MgCl2, 2 mM DTT, 1.75 mM ATP, 0.1 mg/mL BSA, 6.5% glycerol, pH7.5) containing 400 ng of rx pAB1 at 37° C. 100 ng of DNA gyrase was used to supercoil the rx pAB1 in the presence of different concentrations of a gyrase inhibitor. After 15 minutes of incubation with the inhibitor at 37° C., all reactions were stopped with 1 µL of stop solution (3% SDS and 250 mM EDTA). Samples were analyzed by electrophoresis in 1% w/v agarose gels followed by ethidium bromide staining and photographed under UV light.

[2] = tested on: Mtb; test: Mtb whole cell assay (% inhibition, MIC); format: cell-based, Mycobacterium tuberculosis; conditions: Mycobacterium tuberculosis
[3] = tested on: M. abscessus; test: MIC against M. abscessus; format: cell-based, Mycobacterium abscessus; conditions: Mycobacteroides abscessus
[4] = in vitro; conditions: human
[5] = tested on: E. coli (ATCC 25922); test: Minimum inhibitory concentration, broth microdilution; conditions: Escherichia coli
Experimental: (§2) Antibacterial minimum inhibitory concentrations (MICs) were obtained from three independent experiments using broth microdilution methods in 96-well plates according to Clinical and Laboratory Standards Institute guidelines. Cells were culture from singles colonies in MHIIB medium for 24 h at 37° C. in agitation (200 RPM). The cultures were then diluted using the same media to reach an OD600 of 0.1. Then, 50 µL of the diluted cultures were added to the plates holding 50 µL of serially diluted compounds in MHIIB. The plates were incubated at 37° C. for 20 h. The starting inoculum was fixated to 10^5 colony-forming units per ml.

[6] = tested on: S. aureus (ATCC 14775); test: as above; conditions: Staphylococcus aureus
[7] = molecular target: T1, E. coli DNA gyrase (Escherichia coli (strain K12), UniProt P0AES4+P0AES6); test: Agarose gel-based DNA gyrase inhibition assay; format: biochemical; conditions: for pIC50: Table 8, read-out: IC50 Gyrase Gel-based
Experimental: 100 ng of DNA gyrase was used to supercoil the rx pAB1 in the presence of different concentrations of a gyrase inhibitor. […] Samples were analyzed by electrophoresis in 1% w/v agarose gels followed by ethidium bromide staining and photographed under UV light.

[8] = molecular target: T1, E. coli DNA gyrase; test: SDFQ-based DNA gyrase inhibition assay; format: biochemical; conditions: Table 8; read-out: IC50 Gyrase SDFQ
Experimental: 100 ng of DNA gyrase was used to supercoil the rx pAB1_FL905 in the presence of different concentrations of a gyrase inhibitor. […] The IC50 values were estimated by nonlinear fitting of the following equation: […]
where F is the fluorescence intensity at the x concentration of an min inhibitor. Fmax and Fmin are the maximum and minimum fluorescence of the DNA sample, respectively. P is a slope parameter.

[9] = molecular target: T2, E. coli DNA topoisomerase IV (Escherichia coli (strain K12), UniProt P0AFI2+P20083); test: E. coli DNA topoisomerase IV relaxation assay (gel-based); format: biochemical; conditions: for pIC50: IC50 Topoisomerase IV Gel-based, Table 8
T2 sequence (P0AFI2 whole entry, looked up): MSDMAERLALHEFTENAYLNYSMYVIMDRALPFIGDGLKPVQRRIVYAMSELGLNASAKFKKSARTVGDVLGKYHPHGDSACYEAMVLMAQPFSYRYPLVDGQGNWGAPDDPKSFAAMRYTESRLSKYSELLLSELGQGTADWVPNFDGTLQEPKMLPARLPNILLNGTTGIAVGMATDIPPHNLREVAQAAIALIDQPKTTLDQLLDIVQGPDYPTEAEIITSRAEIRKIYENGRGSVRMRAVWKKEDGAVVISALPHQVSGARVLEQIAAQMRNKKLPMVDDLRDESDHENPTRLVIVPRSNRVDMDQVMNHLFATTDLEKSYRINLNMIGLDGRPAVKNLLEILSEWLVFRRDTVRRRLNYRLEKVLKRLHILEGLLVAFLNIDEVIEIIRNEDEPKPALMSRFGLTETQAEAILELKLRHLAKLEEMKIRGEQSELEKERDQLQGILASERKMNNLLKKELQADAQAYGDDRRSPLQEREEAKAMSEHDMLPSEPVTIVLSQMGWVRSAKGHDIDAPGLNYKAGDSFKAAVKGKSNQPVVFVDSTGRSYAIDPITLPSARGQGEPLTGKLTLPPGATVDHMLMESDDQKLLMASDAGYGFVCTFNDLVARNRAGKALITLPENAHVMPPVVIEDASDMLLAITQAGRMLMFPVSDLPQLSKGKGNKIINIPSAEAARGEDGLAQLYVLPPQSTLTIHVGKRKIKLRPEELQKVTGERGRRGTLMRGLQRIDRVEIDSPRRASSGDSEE
T2 sequence (P20083 whole entry, looked up): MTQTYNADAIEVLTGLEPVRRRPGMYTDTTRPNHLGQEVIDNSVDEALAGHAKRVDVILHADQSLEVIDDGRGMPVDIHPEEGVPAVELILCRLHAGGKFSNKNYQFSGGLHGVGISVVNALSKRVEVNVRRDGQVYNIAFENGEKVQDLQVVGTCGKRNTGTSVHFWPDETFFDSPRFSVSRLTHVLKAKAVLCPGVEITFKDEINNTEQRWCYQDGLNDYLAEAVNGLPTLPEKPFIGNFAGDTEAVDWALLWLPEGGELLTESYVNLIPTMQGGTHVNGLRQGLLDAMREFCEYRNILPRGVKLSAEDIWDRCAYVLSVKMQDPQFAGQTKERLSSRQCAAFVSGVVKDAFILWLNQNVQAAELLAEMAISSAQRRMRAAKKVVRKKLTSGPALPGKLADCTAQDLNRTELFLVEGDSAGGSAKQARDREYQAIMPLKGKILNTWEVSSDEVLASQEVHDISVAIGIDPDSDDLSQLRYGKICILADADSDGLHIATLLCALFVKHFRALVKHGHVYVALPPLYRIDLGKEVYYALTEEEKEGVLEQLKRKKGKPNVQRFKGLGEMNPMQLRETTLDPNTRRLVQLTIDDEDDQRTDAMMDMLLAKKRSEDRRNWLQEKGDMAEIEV
Experimental: (§1) Relaxation assays by E. coli DNA topoisomerase IV and the ATPase assays were performed. […] Lane 1 is supercoiled plasmid pAB1. […] The supercoiled, fluorescently-labeled plasmid pAB1_FL905 was used.

[10] = molecular target: T2, E. coli DNA topoisomerase IV; test: SDFQ-based DNA relaxation assay with E. coli DNA topoisomerase IV; format: biochemical
Experimental: as §1

[11] = tested on: E. coli imp; test: microbe, parasite or virus in culture; conditions: Escherichia coli, read-out: MIC E. coli imp BAS3023
Experimental: as §2

[12] = tested on: MRSA; test: Minimum inhibitory concentration, broth microdilution; conditions: Staphylococcus aureus
[13] = tested on: B. subtilis (ATCC 6633); test: as above; conditions: Bacillus subtilis, ATCC6633, read-out: MIC B. subtilis ATCC 6633
[14] = molecular target: T1, E. coli DNA gyrase; test: biochemical; format: biochemical
[15] = molecular target: T1, E. coli DNA gyrase; test: DNA gyrase mediated DNA cleavage assay; format: biochemical; conditions: pBR322
Experimental: 250 ng of supercoiled pBR322 plasmid were incubated with 50 nM of E. coli DNA gyrase in reactions containing 35 mM Tris-HCl, 24 mM KCl, 4 mM MgCl2, 2 mM DTT, 0.1 mg/mL BSA, 6.5% glycerol, and 1.75 mM ATP, in presence of 200 µM of compounds, at 37° C. for 15 min. Then, 0.2% (w/v) of SDS and 0.1 mg/mL proteinase K were added, and samples were incubated at 37° C. for 1 h. […] Samples were examined by electrophoresis in 1% w/v agarose gel containing 0.5 µg/mL ethidium bromide and photographed under UV light.

[16] = molecular target: T1, E. coli DNA gyrase; test: E. coli DNA gyrase ATPase assay; format: biochemical
Experimental: E. coli DNA gyrase ATPase assays were performed in 60 µL of 1 ×gyrase ATPase buffer (10 mM Tris.HCl (pH 7.5), 0.2 mM EDTA, 1 mM magnesium chloride, 1 mM DTT, and 2% (w/v) glycerol) containing 50 nM E. coli DNA gyrase, 200 ng rx pAB1, 0.8 mM Phosphoenol pyruvate, 1.2 units of Pyruvate kinase, 1.7 units of lactate dehydrogenase, and 0.4 mM of NADH at 37° C. After the reaction mixtures are incubated on ice for 5 minutes, 2 mM of ATP is added to initiate the reaction. Absorbance at OD340nm is monitored for up to 30 minutes at 37° C. in a spectrophotometer.

[17] = Table 10, read-out: IC50 (µM) Mtb gyrase
[18] = ATCC25922, read-out: MIC (µM) Ec, E. coli strain ATCC25922
[19] = ATCC14775, read-out: MIC (µM) Sa
[20] = ATCC25922, read-out: MIC E coli ATCC 25922, Table 9
[21] = ATCC14775, read-out: MIC S. aureus ATCC 14775
[22] = ATCC33591 / MRSA, read-out: MIC MRSA ATCC 33591
[23] = ATCCBAA44 / MRSA, read-out: MIC S. aureus (MRSA) ATCC BAA44
[24] = MRSA, read-out: Minimum Inhibitory Concentration S.aureus MRSA

| SMILES | IC50 [1, 17] [µM] | MIC [2] [µM] | MIC [3] [µM] | pIC50 [4] | MIC [6, 19] [µM] | MIC [11] [µM] | MIC [5, 20] [µM] | MIC [6, 21] | MIC [12, 22] [µM] | MIC [13] | other results |
| --- | --- | --- | --- | --- | --- | --- | --- | --- | --- | --- | --- |
| C[n+]1c(-c2ccc(/C=N/NC(=O)c3cccc(C(=O)N/N=C/c4ccc(-c5cn6ccccc6[n+]5C)cc4)c3)cc2)cn2ccccc21 [Compound 259] | 2.6 | > 200 | > 200 | < 3.70 | 200 |  |  |  |  |  | MIC [5, 18]: > 200 µM |
| C[n+]1c(-c2ccc(/C=N/NC(=O)c3ccc(C(=O)N/N=C/c4ccc(-c5cn6ccccc6[n+]5C)cc4)nc3)cc2)cn2ccccc21 [Compound 264] | 2.1 | 6.2 | 13.5 | < 3.70 | 100 |  |  |  |  |  |  |
| C[n+]1c(-c2ccc(/C=N/NC(=O)c3cncc(C(=O)N/N=C/c4ccc(-c5cn6ccccc6[n+]5C)cc4)c3)cc2)cn2ccccc21 [Compound 260] | 92 | > 200 | > 200 | < 3.70 | > 200 |  |  |  |  |  | MIC [5, 18]: > 200 µM |
| CCCCSc1ccn2cc(-c3ccc(/C=N/NC(=O)c4ccc(C(=O)N/N=C/c5ccc(-c6cn7ccc(SCCCC)cc7[n+]6C)cc5)cc4)cc3)[n+](C)c2c1 [Compound 262] | 118 | 122 | > 200 | < 3.70 | > 200 |  |  |  |  |  | MIC [5, 18]: > 200 µM |
| O=C(Oc1ccccc1)c1cc(O)c(O)c(O)c1 [Phenyl gallate, phenyl gallate] |  |  |  |  |  | > 200 | > 200 | 64 µg/mL and 200 µM | 200 | > 64 µg/mL and > 200 µM | pIC50 [7]: < 4.00; pIC50 [8]: < 4.00; pIC50 [9]: < 4.00; pIC50 [10]: < 4.00; MIC [12, 23]: 64 µg/mL |
| CCCCCCCCOC(=O)c1cc(O)c(O)c(O)c1 [Octyl gallate, octyl gallate] |  |  |  |  |  | 50 (≈ 14.1 µg/mL) | > 200 | 56.5 µg/mL and 200 µM | 100 | 4 µg/mL and 12.5 µM to 25 µM | pIC50 [7]: 4.30; pIC50 [8]: 4.59; inhibition of E. coli DNA topoisomerase IV [9]: strongly inhibit; pIC50 [9]: 4.30; pIC50 [10]: 4.39; MIC ([5]; ATCC25922, read-out: MIC E. coli ATCC 25922, Table 7): 226 µg/mL; MIC [12, 23]: 56.5 µg/mL |
| CCCCCCCCCCCCOC(=O)c1cc(O)c(O)c(O)c1 [Dodecyl gallate, dodecyl gallate] |  |  |  |  |  | 200 (≈ 67.7 µg/mL) | > 200 | 67.7 µg/mL and 200 µM | 200 | 8 µg/mL and 25 µM to 50 µM | pIC50 [7]: 4.82; pIC50 [8]: 4.86; inhibition of E. coli DNA topoisomerase IV [9]: strongly inhibit; pIC50 [9]: 4.30; pIC50 [10]: 4.43 |
| O=C1C=C(NCCc2cc(Br)c(O)c(Br)c2)C(=O)c2ncccc21 [Compound 232, 7-((2-(3,5-Dibromo-4-hydroxyphenyl)ethyl)amino)-5,8-quinolinedione] |  |  |  |  |  |  |  |  |  |  | inhibition of E. coli DNA gyrase activities ([7]; 50 µM of compounds): inhibited; inhibition of E. coli DNA gyrase activities ([7]; 200 µM of compounds): completely inhibited; pIC50 ([14]; IC50 (50-200 µM), bin of Table 2): 3.70 to 4.30; E. coli DNA gyrase-mediated DNA breaks and nicking [15]: cause DNA nicking |
| O=C(O)CCNc1ccc(NCCC(=O)O)c2c1C(=O)c1ccccc1C2=O [Compound 173, 3-({4-[(2-carboxyethyl)amino]-9,10-dioxo-9,10-dihydroanthracen-1-yl}amino)propanoic acid] |  |  |  |  |  |  |  |  |  |  | inhibition of E. coli DNA gyrase activities ([7]; 50 µM of compounds): completely inhibited; IC50 ([14]; IC50 (15-[…] µM), bin of Table 2): 15 to 25 µM; E. coli DNA gyrase-mediated DNA breaks and nicking [15]: cause DNA nicking; MIC [12, 24]: 100 µM |
| Cc1c(CCC(=O)O)c(=O)oc2c(C)c3occ(-c4ccc(Br)cc4)c3cc12 [Compound 48] |  |  |  |  |  |  |  |  |  |  | inhibition of E. coli DNA gyrase activities ([7]; 50 µM of compounds): completely inhibited; inhibition of E. coli DNA gyrase activities ([7]; 200 µM of compounds): completely inhibited; inhibition of E. coli DNA gyrase activities [14]: potent bacterial DNA gyrase inhibitors; IC50 ([14]; Table 5, E. coli gyrase, read-out: IC50 (µM) EC): 4.2 µM; pKi [16]: 6.82; inhibition of the ATPase activities of E. coli DNA gyrase ([16]; AB-MECA and gallates at 100 µM): ATP competitive inhibitor; IC50 ([1]; Table 5, Mtb gyrase, read-out: IC50 (µM) Mtb): 57 µM; inhibition at 20 µM ([2]; Table 5 (same values in Table 6 at 20 µM)): 38.6%; MIC ([6]; ATCC14775, read-out: MIC (µM) SA): 3.1 µM (≈ 1.37 µg/mL); MIC ([6]; ATCC14775, read-out: Minimum Inhibitory Concentration S.aureus): 3.12 µM (≈ 1.38 µg/mL); MIC ([12]; MRSA, read-out: MIC (µM) MRSA): 3.1 µM; MIC [12, 24]: 3.12 µM |
| CO[C@@H]1[C@@H](OC(N)=O)[C@@H](O)[C@H](Oc2ccc3c(O)c(NC(=O)c4ccc(O)c(CC=C(C)C)c4)c(=O)oc3c2C)OC1(C)C [Novobiocin, novobiocin, reference compound] |  |  |  |  |  | 6.25 (≈ 3.83 µg/mL) | 158 | < 6.25 µM | < 6.25 | < 625 µM |  |
